# Source: PubChem BioAssay (NCI)
#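 Each compound was tested at five concentrations against cells in 96-well plates for 48 hours. GI50 is the concentration that inhibits growth by half. The concentration for full growth arrest is given as TGI.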
# What was measured:
# Experiment in all cases: NCI anticancer screen, dose series, 48 h
# NCI-H226 lung = test system: NCI-H226 lung
# CCRF-CEM leukemia = test system: CCRF-CEM leukemia
# OVCAR-8 ovarian = test system: OVCAR-8 ovarian
# OVCAR-3 ovarian = test system: OVCAR-3 ovarian
# OVCAR-5 ovarian = test system: OVCAR-5 ovarian
# M14 melanoma = test system: M14 melanoma
# SK-MEL-2 melanoma = test system: SK-MEL-2 melanoma
# HCT-15 colon = test system: HCT-15 colon
# HOP-62 NSCLC = test system: HOP-62 NSCLC
# SNB-19 CNS = test system: SNB-19 CNS
# A549 NSCLC = test system: A549 NSCLC
# SF-295 CNS = test system: SF-295 CNS
# DU-145 prostate = test system: DU-145 prostate
# SW-620 colon = test system: SW-620 colon
# K-562 leukemia = test system: K-562 leukemia
# HT29 colon = test system: HT29 colon
# MDA-MB-231 breast = test system: MDA-MB-231 breast
# NCI-H23 lung = test system: NCI-H23 lung
# LOX IMVI melanoma = test system: LOX IMVI melanoma
# CAKI-1 renal = test system: CAKI-1 renal
# MCF7 breast = test system: MCF7 breast
# UO-31 renal = test system: UO-31 renal
# SF-539 CNS = test system: SF-539 CNS
# A498 renal = test system: A498 renal
# RPMI-8226 leukemia = test system: RPMI-8226 leukemia
# HCC-2998 colon = test system: HCC-2998 colon
# RXF 393 renal = test system: RXF 393 renal
# SF-268 CNS = test system: SF-268 CNS
# T-47D breast = test system: T-47D breast
# COLO 205 colon = test system: COLO 205 colon
# SK-OV-3 ovarian = test system: SK-OV-3 ovarian
# MDA-MB-435 = test system: MDA-MB-435
# MOLT-4 leukemia = test system: MOLT-4 leukemia
# NCI-H460 lung = test system: NCI-H460 lung
# PC-3 prostate = test system: PC-3 prostate
# EKVX NSCLC = test system: EKVX NSCLC
# HL-60(TB) leukemia = test system: HL-60(TB) leukemia
# OVCAR-4 ovarian = test system: OVCAR-4 ovarian
# MDA-N = test system: MDA-N
# HCT-116 colon = test system: HCT-116 colon
# KM12 colon = test system: KM12 colon
# U251 CNS = test system: U251 CNS
# 786-0 renal = test system: 786-0 renal
# HOP-92 NSCLC = test system: HOP-92 NSCLC
# ACHN renal = test system: ACHN renal
# SK-MEL-28 melanoma = test system: SK-MEL-28 melanoma
# SK-MEL-5 melanoma = test system: SK-MEL-5 melanoma
# NCI/ADR-RES ovarian = test system: NCI/ADR-RES ovarian
# NCI-H522 lung = test system: NCI-H522 lung
# UACC-62 melanoma = test system: UACC-62 melanoma
# SN12C renal = test system: SN12C renal
# TK-10 renal = test system: TK-10 renal
# UACC-257 melanoma = test system: UACC-257 melanoma
# SR leukemia = test system: SR leukemia
# SNB-75 CNS = test system: SNB-75 CNS
# MALME-3M melanoma = test system: MALME-3M melanoma
# IGROV1 ovarian = test system: IGROV1 ovarian
structure (smiles),measurement,setting,value
COC(=O)c1c(C(=O)OC)c2ccc(-c3ccc(Cl)cc3)nn2c1C(=O)c1ccc([N+](=O)[O-])cc1,TGI,NCI-H226 lung,> 100 µM
same,TGI,CCRF-CEM leukemia,> 100 µM
same,TGI,OVCAR-8 ovarian,> 100 µM
same,TGI,OVCAR-3 ovarian,> 100 µM
same,TGI,OVCAR-5 ovarian,> 100 µM
same,TGI,M14 melanoma,> 100 µM
same,TGI,SK-MEL-2 melanoma,> 100 µM
same,TGI,HCT-15 colon,> 100 µM
same,TGI,HOP-62 NSCLC,> 100 µM
same,TGI,SNB-19 CNS,> 100 µM
same,TGI,A549 NSCLC,> 100 µM
same,TGI,SF-295 CNS,> 100 µM
same,TGI,DU-145 prostate,> 100 µM
same,TGI,SW-620 colon,> 100 µM
same,TGI,K-562 leukemia,> 100 µM
same,TGI,HT29 colon,> 100 µM
same,TGI,MDA-MB-231 breast,> 100 µM
same,TGI,NCI-H23 lung,> 100 µM
same,TGI,LOX IMVI melanoma,> 100 µM
same,TGI,CAKI-1 renal,76.2 µM
same,TGI,MCF7 breast,> 100 µM
same,TGI,UO-31 renal,> 100 µM
same,TGI,SF-539 CNS,> 100 µM
same,TGI,A498 renal,> 100 µM
same,TGI,RPMI-8226 leukemia,55.3 µM
same,TGI,HCC-2998 colon,> 100 µM
same,TGI,RXF 393 renal,55.5 µM
same,TGI,SF-268 CNS,> 100 µM
same,TGI,T-47D breast,> 100 µM
same,TGI,COLO 205 colon,> 100 µM
same,TGI,SK-OV-3 ovarian,> 100 µM
same,TGI,MDA-MB-435,> 100 µM
same,TGI,MOLT-4 leukemia,82.6 µM
same,TGI,NCI-H460 lung,> 100 µM
same,TGI,PC-3 prostate,> 100 µM
same,TGI,EKVX NSCLC,84.4 µM
same,TGI,HL-60(TB) leukemia,> 100 µM
same,TGI,OVCAR-4 ovarian,> 100 µM
same,TGI,MDA-N,> 100 µM
same,TGI,HCT-116 colon,> 100 µM
same,TGI,KM12 colon,> 100 µM
same,TGI,U251 CNS,> 100 µM
same,TGI,786-0 renal,> 100 µM
same,TGI,HOP-92 NSCLC,39.5 µM
same,TGI,ACHN renal,> 100 µM
same,TGI,SK-MEL-28 melanoma,> 100 µM
same,TGI,SK-MEL-5 melanoma,> 100 µM
same,TGI,NCI/ADR-RES ovarian,> 100 µM
same,TGI,NCI-H522 lung,37.3 µM
same,TGI,UACC-62 melanoma,> 100 µM
same,TGI,SN12C renal,> 100 µM
same,TGI,TK-10 renal,57.9 µM
same,TGI,UACC-257 melanoma,> 100 µM
CC(=O)O[C@H]1C(=O)[C@@]2(C)[C@H]([C@H](OC(=O)c3ccccc3)[C@]3(O)C[C@H](OC(=O)[C@H](O)[C@@H](NC(=O)c4ccoc4)c4ccccc4)C(C)=C1C3(C)C)[C@]1(OC(C)=O)CO[C@@H]1C[C@@H]2O,GI50,CCRF-CEM leukemia,0.0334 µM
same,TGI,CCRF-CEM leukemia,> 100 µM
same,TGI,OVCAR-8 ovarian,47.8 µM
same,TGI,OVCAR-5 ovarian,0.091 µM
same,TGI,M14 melanoma,0.661 µM
same,GI50,SK-MEL-2 melanoma,27.8 µM
same,GI50,HCT-15 colon,0.907 µM
same,TGI,HCT-15 colon,> 100 µM
same,TGI,HOP-62 NSCLC,16.4 µM
same,TGI,SNB-19 CNS,> 100 µM
same,TGI,A549 NSCLC,> 100 µM
same,TGI,SF-295 CNS,22.9 µM
same,TGI,SR leukemia,47 µM
same,TGI,DU-145 prostate,> 100 µM
same,TGI,SW-620 colon,> 100 µM
same,GI50,K-562 leukemia,0.0337 µM
same,TGI,K-562 leukemia,> 100 µM
same,TGI,NCI-H23 lung,31.2 µM
same,TGI,LOX IMVI melanoma,> 100 µM
same,TGI,UO-31 renal,> 100 µM
same,TGI,SF-539 CNS,0.257 µM
same,TGI,A498 renal,0.698 µM
same,TGI,RPMI-8226 leukemia,> 100 µM
same,GI50,SNB-75 CNS,0.0531 µM
same,TGI,SF-268 CNS,> 100 µM
same,GI50,T-47D breast,26.3 µM
same,TGI,T-47D breast,> 100 µM
same,TGI,COLO 205 colon,16.9 µM
same,TGI,SK-OV-3 ovarian,32.7 µM
same,TGI,MDA-MB-435,0.039 µM
same,GI50,MOLT-4 leukemia,0.042 µM
same,TGI,MOLT-4 leukemia,> 100 µM
same,TGI,NCI-H460 lung,28 µM
same,TGI,PC-3 prostate,> 100 µM
same,GI50,EKVX NSCLC,17.2 µM
same,TGI,EKVX NSCLC,> 100 µM
same,TGI,OVCAR-4 ovarian,> 100 µM
same,TGI,MDA-N,0.0166 µM
same,TGI,KM12 colon,14.1 µM
same,GI50,ACHN renal,0.0584 µM
same,TGI,ACHN renal,> 100 µM
same,TGI,SK-MEL-5 melanoma,0.399 µM
same,TGI,NCI/ADR-RES ovarian,> 100 µM
same,TGI,UACC-62 melanoma,31.9 µM
same,TGI,SN12C renal,> 100 µM
same,GI50,TK-10 renal,0.164 µM
same,TGI,TK-10 renal,40.4 µM
same,TGI,UACC-257 melanoma,68.5 µM
CC1(C)CSCC(C)(C)C(=N/N)/C1=N\N,TGI,NCI-H226 lung,> 100 µM
same,TGI,OVCAR-8 ovarian,> 100 µM
same,TGI,OVCAR-3 ovarian,> 100 µM
same,TGI,OVCAR-5 ovarian,> 100 µM
same,TGI,M14 melanoma,> 100 µM
same,TGI,SK-MEL-2 melanoma,> 100 µM
same,TGI,HCT-15 colon,> 100 µM
same,TGI,HOP-62 NSCLC,> 100 µM
same,TGI,SNB-19 CNS,> 100 µM
same,TGI,A549 NSCLC,> 100 µM
same,TGI,SF-295 CNS,> 100 µM
same,TGI,SR leukemia,> 100 µM
same,TGI,DU-145 prostate,> 100 µM
same,TGI,SW-620 colon,> 100 µM
same,TGI,K-562 leukemia,> 100 µM
same,TGI,HT29 colon,> 100 µM
same,TGI,NCI-H23 lung,> 100 µM
same,TGI,LOX IMVI melanoma,> 100 µM
same,TGI,CAKI-1 renal,> 100 µM
same,TGI,MCF7 breast,> 100 µM
same,TGI,SF-539 CNS,> 100 µM
same,TGI,A498 renal,> 100 µM
same,TGI,HCC-2998 colon,> 100 µM
same,TGI,MALME-3M melanoma,> 100 µM
same,TGI,SNB-75 CNS,> 100 µM
same,TGI,SF-268 CNS,> 100 µM
same,TGI,T-47D breast,> 100 µM
same,TGI,COLO 205 colon,> 100 µM
same,TGI,SK-OV-3 ovarian,> 100 µM
same,TGI,MDA-MB-435,> 100 µM
same,TGI,NCI-H460 lung,> 100 µM
same,TGI,PC-3 prostate,> 100 µM
same,TGI,EKVX NSCLC,> 100 µM
same,TGI,HL-60(TB) leukemia,> 100 µM
same,TGI,IGROV1 ovarian,> 100 µM
same,TGI,MDA-N,> 100 µM
same,TGI,HCT-116 colon,> 100 µM
same,TGI,KM12 colon,> 100 µM
same,TGI,U251 CNS,> 100 µM
same,TGI,786-0 renal,> 100 µM
same,TGI,HOP-92 NSCLC,> 100 µM
same,TGI,ACHN renal,> 100 µM
same,TGI,SK-MEL-28 melanoma,> 100 µM
same,TGI,SK-MEL-5 melanoma,> 100 µM
same,TGI,NCI/ADR-RES ovarian,> 100 µM
same,TGI,NCI-H522 lung,> 100 µM
same,TGI,UACC-62 melanoma,> 100 µM
same,TGI,SN12C renal,> 100 µM
same,TGI,TK-10 renal,> 100 µM
same,TGI,UACC-257 melanoma,> 100 µM
